The data set in a line: RP, Thermo Scientific Acclaim RSLC 120 C18, 100 × 2.1 mm, 2.2 µm, 30 °C, 0.2 mL/min, estimated dead time 1.1 min; A: 90% water + 10% methanol + 0.01% formic acid + 5 mM ammonium formate, pH 3.61; B: methanol + 0.01% formic acid + 5 mM ammonium formate, pH 3.61; gradient (min/%B) 0/1 1/1 2/39 13/99.9 15/99.9 15.1/1 20.1/1. The conditions noted are these: stereoisomer not certain.

This is an account of results in the RepoRT retention time repository (doi:10.1021/acs.analchem.2c02893).

On to `OCc1ncc2n1-c1ccc(Cl)cc1C(c1ccccc1F)=NC2` [Midazolam -1-Hydroxy], for which the LC retention time is 8.44 min.

`Cc1ncc2n1-c1ccc(Cl)cc1C(c1ccccc1F)=NC2` [Midazolam]: the LC retention time was 8.63 min.

Take `CC#CC1(O)CCC2C3CCC4=CC(=O)CCC4=C3C(c3ccc(N(C)C)cc3)CC21C` (stereo unspecified) [Mifepristone]: the LC retention time was 11.1 min. As for `CCN(CC)C(=O)C1(c2ccccc2)CC1CN` (stereo unspecified) [Milnacipran], the figure is 5.73 min; as for `N=c1nc(N2CCCCC2)cc(N)n1O` [Minoxidil], 4.88 min.

With `CCCOc1ccc(S(=O)(=O)N2CCN(CCO)CC2)cc1-c1nc2c(CCC)cn(CC)c2c(=O)[nH]1` [Mirodenafil], the LC retention time is 9.49 min.

In the case of `CN1CCN2c3ncc(O)cc3Cc3ccccc3C2C1` (stereo unspecified) [Mirtazapine- 8-OH], the LC retention time is 4.54 min. As for `c1ccc2c(c1)Cc1cccnc1N1CCNCC21` (stereo unspecified) [Mirtazapine-Desmethyl (normirtazapine)], the figure is 5.31 min. As to `CN1CCN2c3ncccc3Cc3ccccc3C2C1` (stereo unspecified) [Mirtazapine], the LC retention time was 5.29 min. To `CCC1CN2CCC3(O)C(=Nc4cccc(OC)c43)C2CC1C(=COC)C(=O)OC` (stereo unspecified) [Mitragynine-7-Hydroxy] belongs 5.95 min; to `CN(c1nccc(=O)[nH]1)C1CCN(c2nc3ccccc3n2Cc2ccc(F)cc2)CC1` [Mizolastine], 9.14 min. For `O=C(NCCN1CCOCC1)c1ccc(Cl)cc1` [Moclobemide], the LC retention time was 4.98 min. As for `NC(=O)CS(=O)C(c1ccccc1)c1ccccc1` (stereo unspecified) [Modafinil], the figure is 6.76 min.

With `CCSC(=O)N1CCCCCC1` [Molinate], the LC retention time is 9.89 min. As for `CCc1c(C)[nH]c2c1C(=O)C(CN1CCOCC1)CC2` (stereo unspecified) [Molindone], the figure is 4.89 min. As for `CC1CC2C3CCC4=CC(=O)C=CC4(C)C3(Cl)C(O)CC2(C)C1(OC(=O)c1ccco1)C(=O)CCl` (stereo unspecified) [Mometasone fuorate], the figure is 10.6 min; as for `CCC1(C2OC(C3OC(O)(CO)C(C)CC3C)CC2C)CCC(C2(C)CCC3(CC(O)C(C)C(C(C)C(OC)C(C)C(=O)O)O3)O2)O1` (stereo unspecified) [Monensin], 13.8 min. For `CC1C(=O)OC2CC[N+]3([O-])CC=C(COC(=O)C(C)(O)C1(C)O)C23` (stereo unspecified) [Monocrotaline-N-oxide], the LC retention time is 3.19 min. As to `CC1C(=O)OC2CCN3CC=C(COC(=O)C(C)(O)C1(C)O)C23` (stereo unspecified) [Monocrotaline], the LC retention time is 2.92 min. As for `CNC(=O)C=C(C)OP(=O)(OC)OC` [Monocrotophos], the figure is 4.36 min; as for `CON(C)C(=O)Nc1ccc(Cl)cc1` [Monolinuron], 7.76 min. For `CC(C)(O)c1ccccc1CCC(SCC1(CC(=O)O)CC1)c1cccc(C=Cc2ccc3ccc(Cl)cc3n2)c1` (stereo unspecified) [Montelukast], the LC retention time was 13.4 min. For the compound `CN(C)C(=O)Nc1ccc(Cl)cc1` [Monuron], the LC retention time was 6.9 min.

For the compound `Cc1ccc(C2(O)CCN(CCCC(=O)c3ccc(F)cc3)CC2)cc1` [Moperone], the LC retention time was 6.59 min. To `Cc1ccsc1C=CC1=NCCCN1C` [Morantel] belongs 4.36 min; to `CN1CCC23c4c5ccc(OC6OC(C(=O)O)C(O)C(O)C6O)c4OC2C(O)C=CC3C1C5` [Morphine-3-beta-D-glucuronide], 1.63 min.

As for `CN1CCC23c4c5ccc(O)c4OC2C(O)CCC3C1C5` (stereo unspecified) [Morphine-Dihydro], the LC retention time was 2.66 min.

As to `CCOc1ccc2c3c1OC1C(O)C=CC4C(C2)N(C)CCC341` (stereo unspecified) [Morphine-Ethyl], the LC retention time was 4.08 min. Regarding `Oc1ccc2c3c1OC1C(O)C=CC4C(C2)NCCC341` (stereo unspecified) [Morphine-Nor], the LC retention time was 2.71 min. As for `CCc1cc2cc(OC)c(OC)cc2c(Cc2ccccc2)n1` [Moxaverine], the figure is 8.29 min; as for `CON=C1CC2(CC3CC(CC=C(C)CC(C)C=CC=C4COC5C(O)C(C)=CC(C(=O)O3)C45O)O2)OC(C(C)=CC(C)C)C1C` (stereo unspecified) [Moxidectin], 13.8 min; as for `COc1c(N2CC3CCCNC3C2)c(F)cc2c(=O)c(C(=O)O)cn(C3CC3)c12` (stereo unspecified) [Moxifloxacin], 5.17 min. With `CC(=O)Oc1cc(C(C)C)c(OCCN(C)C)cc1C` [Moxisylyte], the LC retention time is 6.21 min. As for `COc1nc(C)nc(Cl)c1NC1=NCCN1` [Moxonidine], the LC retention time was 3.26 min. As for `CCCCC(C#N)(Cn1cncn1)c1ccc(Cl)cc1` (stereo unspecified) [Myclobutanil], the figure is 9.74 min. To `COc1c(C)c2c(c(O)c1CC=C(C)CCC(=O)O)C(=O)OC2` [Mycophenolic acid] belongs 8.79 min; to `CN=CNc1ccc(C)cc1C` [N'-(2 4-Dimethylphenyl)-N-methylformamidine], 4.44 min. To `CCCCCCCCCCN(C)C` [N,N-Dimethyldecylamine] belongs 8.59 min.

Take `CCCCCCCCCCCC[N+](C)(C)[O-]` [N,N-Dimethyldodecylamine N-oxide]: the LC retention time was 11.2 min. Consider `CCCCCCCCCCCCN(C)C` [N,N-Dimethyldodecylamine], for which the LC retention time was 10.4 min. Regarding `CN(C)S(N)(=O)=O` [N,N-Dimethylsulfamide], the LC retention time was 2.02 min. For the compound `CCCCCCCCCCCCCC[N+](C)(C)[O-]` [N,N-Dimethyltetradecylamine-N-oxide], the LC retention time was 12.6 min. Consider `CCCCCCCCCCCCCCN(C)C` [N,N-Dimethyltetradecylamine], for which the LC retention time is 11.8 min.

With `Cc1ccc(NC=O)c(C)c1` [N-2-4-Dimethylphenylformamide (DMF. Metabolite Amitraz)], the LC retention time is 6.67 min. To `CC(=O)Nc1ccc(O)c(C(=O)O)c1` [N-Acetyl mesalazine] belongs 3.43 min. For the compound `c1ccc2sc(NC3CCCCC3)nc2c1` [N-Cyclohexyl-2-benzothiazol-amine], the LC retention time was 10.9 min. `CN1CCCC1=O` [N-Methyl-2-pyrrolidone]: the LC retention time is 3.1 min. As for `CCCCCCCCCCCCNC` [N-Methyldodecylamine], the figure is 10.5 min; as for `CCNC(=O)c1ccc(OC)cc1` [N-ethyl-4-methoxybenzamide], 5.59 min. As for `O=C(c1cccc2ccccc12)c1cn(CC2CCCCC2)c2ccccc12` [NE-CHMIMO], the figure is 13 min; as for `O=C(Oc1cccc2ccccc12)c1cn(CCCCCF)c2ccccc12` [NM-2201], 12.4 min. To `CCCCCn1cc(C(=O)Nc2cccc3ccccc23)c2ccccc21` [NNEI] belongs 11.7 min. With `O=C(Oc1cccc2cccnc12)c1nn(CCCCCF)c2ccccc12` [NPB-22-5F], the LC retention time was 10.3 min. To `CCCCCn1nc(C(=O)Oc2cccc3cccnc23)c2ccccc21` [NPB-22] belongs 11.4 min; to `COc1ccc2cc(CCC(C)=O)ccc2c1` [Nabumetone], 9.82 min. In the case of `CC(C)(C)NCC(O)COc1cccc2c1CC(O)C(O)C2` (stereo unspecified) [Nadolol], the LC retention time is 4.29 min. Take `CN(CC=Cc1ccccc1)Cc1cccc2ccccc12` [Naftifine]: the LC retention time is 8.52 min.

Take `Oc1ccc2c3c1OC1C(O)CCC4(O)C(C2)N(CC2CCC2)CCC314` (stereo unspecified) [Nalbuphine]: the LC retention time was 4.17 min. As for `COP(=O)(OC)OC(Br)C(Cl)(Cl)Br` (stereo unspecified) [Naled], the figure is 8.55 min. As for `CCn1cc(C(=O)O)c(=O)c2ccc(C)nc21` [Nalidixic acid], the figure is 7.06 min. Consider `C=CCN1CCC23c4c5ccc(O)c4OC2C(O)C=CC3C1C5` (stereo unspecified) [Nalorphine], for which the LC retention time is 3.39 min.

On to `C=CCN1CCC23c4c5ccc(O)c4OC2C(=O)CCC3(O)C1C5` (stereo unspecified) [Naloxone], for which the LC retention time is 3.44 min. To `CC12CCC3C4CCC(=O)C=C4CCC3C1CCC2OC(=O)CCc1ccccc1` (stereo unspecified) [Nandrolone phenylpropionate] belongs 13.6 min.

With `CC12CCC3C4CCC(=O)C=C4CCC3C1CCC2O` (stereo unspecified) [Nandrolone], the LC retention time is 9.37 min. To `c1ccc2c(CC3=NCCN3)cccc2c1` [Naphazoline] belongs 4.84 min; to `O=C(O)Cc1cccc2ccccc12` [Naphthylacetic acid (1-)], 7.76 min. Turning to `CCCC(C(=O)c1ccc2ccccc2c1)N1CCCC1` (stereo unspecified) [Naphyrone], the LC retention time is 7.33 min.

For the compound `CCN(CC)C(=O)C(C)Oc1cccc2ccccc12` (stereo unspecified) [Napropamide], the LC retention time was 10.2 min. Take `COc1ccc2cc(C(C)C(=O)O)ccc2c1` (stereo unspecified) [Naproxen]: the LC retention time is 8.99 min. As for `O=C(O)c1ccccc1C(=O)Nc1cccc2ccccc12` [Naptalam (N-1-Naphthylphthalamic acid)], the figure is 6.75 min.

Regarding `CCC(C(=O)O)C1OC(C(C)C(O)C(C)C(=O)C(CC)C2OC3(C=CC(O)C4(CCC(C)(C5CCC(O)(CC)C(C)O5)O4)O3)C(C)CC2C)C(C)CC1C` (stereo unspecified) [Narasin], the LC retention time is 16.1 min. Take `CC(C)C1CCC(C(=O)NC(Cc2ccccc2)C(=O)O)CC1` (stereo unspecified) [Nateglinide]: the LC retention time is 10.4 min. Consider `OC(CNCC(O)C1CCc2cc(F)ccc2O1)C1CCc2cc(F)ccc2O1` (stereo unspecified) [Nebivolol], for which the LC retention time was 8.28 min. `CCCCN(C)C(=O)Nc1ccc(Cl)c(Cl)c1` [Neburon]: the LC retention time was 10.7 min. Consider `CCc1nn(CCCN2CCN(c3cccc(Cl)c3)CC2)c(=O)n1CCOc1ccccc1` [Nefazodone], for which the LC retention time is 9.95 min. As for `CN1CCOC(c2ccccc2)c2ccccc2C1` (stereo unspecified) [Nefopam], the figure is 5.67 min.
